Measurements from patent US7943137B2, “FPRL1 ligands and use thereof” (Takeda Pharmaceutical Company Limited, priority 2002, dated 2011).
Where a SMILES comes first, the peptide text is derived from it. Where no end group is shown, it is not given here. The star is where a group is joined. For = O=C*

Key:
FPRL1-GFP fusion protein = assay: Intracellular transition (internalization) of FPRL1-GFP fusion protein expressed in CHO cells; format: cell-based, human; conditions: 37° C., one hour, Cellomics ArrayScan
Experimental: CHO cell line, in which a protein, wherein GFP (Green Fluorescent Protein) is fused to the C-terminus of human FPRL1, is stably expressed, was established using an expression plasmid for animal cells by publicly known method. For assay of intracellular transition of the protein, the cells at growth phase was seeded at the concentration of 40000 cells/well on 96-well plate (Packard, View-Plate™-96, Black), and cultured for overnight at 37° C. under 5% CO2. Firstly, the cells into the well were washed with assay buffer (HBSS (GibcoBRL) supplemented with 0.1% bovine serum albumin (BSA)). Then, 100 μl of the assay buffer containing a test sample were added to the well and incubated at 37° C. under 5% CO2 for one hour. Subsequently, 100 μl/well of cell fixation solution (PBS containing 4% paraformaldehyde (Ca/Mg free)) were added to the well and stood at room temperature for 30 minutes. After removing the cell fixation solution and washing the cells with Ca/Mg free PBS, a labeling solution (3.13 μg/ml of wheat germ aggulutinin (Molecular Probe, W-849) and 5 μg/ml of Hoechst-containing Ca/Mg free PBS) was added (50 μl/well) and stood at room temperature for 20 minutes. After removing the labeling solution, the cells were washed with Ca/Mg free PBS (200 μl/well) to replace the same (200 μl/well). […]

[1] = tested on: FPRL1-GFP fusion protein-expressing CHO cells; assay: Cell migration stimulating activity to FPRL1-GFP fusion protein-expressing CHO cells; format: cell-based, human; conditions: chemotaxis chamber, 37° C., 4 hours, FIG. 24
Experimental: Using FPRL1-GFP fusion protein-expressing CHO cells, which are described in Example 18, a cell migration activity of the above cells by stimulation using formylated peptide was investigated.
The 96-well disposable chemotaxis chamber (ChemoTx-96, Neuro Probe) was used for assay. Firstly, to bottom well of the chamber, a test sample diluted with DMEM (Invitrogen) containing 0.5% BSA was added. Then, a polycarbonate filter, which is precoated with 10 μg/ml bovine fibronectin (Yagai) on both sides, was fixed on the chamber, and contacted with the test sample. Next, suspension for FPRL1-GFP fusion protein-expressing CHO cells was put onto the filter at 96-well site as a droplet. The chamber was covered, and cultured at 37° C. for 4 hours under conditions of 5% CO2. The cell suspension was prepared as follows: the aforementioned CHO cells at growth phase, which had been precultured in 150 cm^2 flask for culture, were peal off using trypsin/EDTA; the cell suspension obtained was centrifuged to get cell precipitation; and after washing with PBS once, the cells were resuspended in DMEM medium containing 0.5% BSA at the concentration of 3.6×10^6 cells/ml. […] For this filter, absorbance at 595 nm was measured using microplate reader.

human FPRL1 = biological target: T1, human FPRL1 (Homo sapiens, UniProt P25090); assay: Inhibiting activity for intracellular cAMP production in human FPRL1-expressing CHO cells; format: cell-based; conditions: comparison of purified ligand and chemical preparation, FIG. 14
T1 construct: expressed in transfected cells; host or cells: CHO cells (clone No. 8)
T1 sequence (P25090 1-351): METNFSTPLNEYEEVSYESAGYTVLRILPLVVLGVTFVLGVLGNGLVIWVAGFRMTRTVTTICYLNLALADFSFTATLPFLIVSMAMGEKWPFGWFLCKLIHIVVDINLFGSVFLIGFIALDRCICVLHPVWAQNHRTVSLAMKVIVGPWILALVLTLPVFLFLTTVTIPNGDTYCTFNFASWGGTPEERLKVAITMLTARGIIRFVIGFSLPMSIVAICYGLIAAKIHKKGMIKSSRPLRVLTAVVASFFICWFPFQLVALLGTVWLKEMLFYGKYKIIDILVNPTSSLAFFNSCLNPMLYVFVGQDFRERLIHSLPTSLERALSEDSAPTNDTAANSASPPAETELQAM
Excerpt: The term “Peptide (nM)” on horizontal axis and “Inhibition (5)” on vertical axis means a concentration of peptide (nM) and an inhibiting activity for intracellular cAMP production (Inhibition (%)), respectively. Closed triangle represents an activity of the intrinsic FPRL1 ligand P1, which has been purified in Example 7. It is derived from fr. 24-25 of the final purified preparation uRPC C2/C18 SC2.1/10. The concentration for peptide is deduced from the absorbance at 215 nm of final purification chromatogram. Closed circle indicates an activity of 16 amino acid peptide containing N-terminal fifteen amino acids of porcine cytochrome B, at which synthetic N-terminus is formylated (formyl-MTNIRKSHPLMKIINN).
Activity of porcine intrinsic FPRL1 ligand P1, which was purified in Example 7, and activity of 16 amino acid-peptide (formyl-MTNIRKSHPLMKIINN, SEQ ID NO: 18), comprising 15 amino acids at N-terminus of N-terminally formylated porcine cytochrome B, wherein the sequence was deduced from structure analysis, were compared using an inhibiting activity for intracellular cAMP production in human […] CHO cells as an index (FIG. 14).

inhibiting activity for intracellular cAMP production (human FPRL1) | Compound | intracellular transition of FPRL1-GFP protein (MemCyto Above Threshold) (FPRL1-GFP fusion protein) | cell migration stimulating activity (absorbance at 595 nm) [1]
 | CSCC[C@H](NC=O)C(=O)N[C@@H](Cc1ccccc1)C(=O)N[C@H](C(=O)N[C@@H](CC(N)=O)C(=O)N[C@@H](CCCNC(=N)N)C(=O)N[C@@H](Cc1c[nH]c2ccccc12)C(=O)N[C@@H](CC(C)C)C(=O)N[C@@H](Cc1ccc(O)cc1)C(=O)N[C@@H](CO)C(=O)N[C@H](C(=O)N[C@@H](CC(N)=O)C(=O)N[C@@H](Cc1c[nH]cn1)C(=O)N[C@@H](CCCCN)C(=O)O)[C@@H](C)O)C(C)C [pfCYOX-1(1-13)] (For-MFVNRWLYSTNHK-OH; C-terminus assumed) | concentration-dependent transition of FPRL1-GFP protein from cell membrane to cytoplasm | bell-shaped dose-dependent cell migration stimulating activity
both activities are equivalent | formyl-MTNIRKSHPLMKIINN (For-MTNIRKSHPLMKIINN) [16 amino acid-peptide comprising 15 amino acids at N-terminus of N-terminally formylated porcine cytochrome B] |  | 
both activities are equivalent | CHO-Met-Thr-Asn-Ile-Arg-Lys-Ser-His-Pro-Leu-Met-Lys-Ile-Ile-Asn ({CHO}-MTNIRKSHPLMKIIN) [porcine intrinsic FPRL1 ligand P1, purified from porcine stomach; N-terminal peptide of N-formylated porcine cytochrome b] |  | 
 | CSCC[C@H](NC=O)C(=O)N[C@@H](Cc1ccccc1)C(=O)N[C@@H](C)C(=O)N[C@@H](CC(=O)O)C(=O)N[C@@H](CCCNC(=N)N)C(=O)N[C@@H](Cc1c[nH]c2ccccc12)C(=O)N[C@@H](CC(C)C)C(=O)N[C@@H](Cc1ccccc1)C(=O)N[C@@H](CO)C(=O)N[C@H](C(=O)N[C@@H](CC(N)=O)C(=O)N[C@@H](Cc1c[nH]cn1)C(=O)N[C@@H](CCCCN)C(=O)O)[C@@H](C)O [hfCYOX-1(1-13)] (For-MFADRWLFSTNHK-OH; C-terminus assumed) | concentration-dependent transition of FPRL1-GFP protein from cell membrane to cytoplasm | bell-shaped dose-dependent cell migration stimulating activity
